The conditions of this series: Liquid.

± gives the expanded uncertainty stated by the source.

One may read the vapor or sublimation pressure as the equilibrium pressure above the liquid or solid. For `FC(F)C(F)(F)F` [pentafluoroethane], the “vapor or sublimation pressure” value is listed as 2008 ± 38 kPa (313.15 K), 2535 ± 48 kPa (323.15 K) and 3171 ± 59 kPa (333.15 K).
